Measurements reported in patent US20090274739A1, “METHODS AND COMPOSITIONS FOR TREATING NEOINTIMAL HYPERPLASIA” (THE TRUSTEES OF COLUMBIA UNIVERSITY IN THE CITY OF NEW YORK, priority 2006, published 2009).

System: murine femoral artery wire injury model (neointimal hyperplasia)
Experiment: Femoral artery wire injury model, morphometry of neointimal formation
Assay type: in vivo, mouse
Parameters: Lumen / Media / Intima / TVA (total vessel area): unit not given here
Excerpt: Animal Models and Drug Treatments. Wild type C57BL/6J background mice and mice deficient for leptin (C57BL/6J-Lepob; ob/ob) or the leptin receptor (C57BL/6J-m+/+Lepdb; db/db) were purchased from Charles Jackson Laboratories, Maine. Mice were obtained at ages 6-8 weeks old and average weight 15 g. Animals were fed standard rodent chow and tap water ad libitum. Procedures and animal care were approved by the Institutional Animal Care and Use Committee. Mice were subjected to femoral artery wire injury or sham injury described below 24 hr prior to starting pharmacological treatments. Sirolimus was administered by intraperitoneal injection once per day for 14 days as a suspension in 0.2% sodium carboxymethyl cellulose and 0.25% polysorbate-80; duplicate experiments were accomplished with 0.5% DMSO. Leptin or LY294002 was administered by intraperitoneal injection once per day for 14 days as a suspension in PBS. Plasma leptin levels were measured at baseline, 3, 6, and 10 hr after leptin injection using an ELISA assay (R&D). Leptin plus the vehicle used for both sirolimus and LY294002 was used as the control group for the treatment groups with sirolimus and LY294002. After the 2-week treatment, animals were processed for femoral artery morphometry.
Femoral Artery Injury Model. Endoluminal injury of bilateral femoral arteries was performed according to the method of Roque et al. with minor modification 27. […] Briefly, to denude and dilate femoral arteries, a 0.014″ angioplasty guidewire (Guidant) was passed endoluminally 3 times to the level of the aortic bifurcation. A sham protocol was performed where the arteries underwent dissection, clamping, and ligature without passage of the guidewire.
Computer-aided quantitative morphometry to measure luminal, medial, intimal, and vessel areas were performed as previously described 27 with minor modification. Mice were euthanized via CO2 asphyxiation prior to en bloc excision of hind limbs. Briefly, multiple segments of the common femoral artery at the level of injury were fixed in 10% Zinc Formalin, embedded in paraffin, sectioned at […] thickness, and subjected to Elastic-Van Gieson staining at a Columbia University Core Histology facility. In many cases, arteries underwent immunohistochemical staining for smooth muscle a-actin to highlight the media and neointima. Photomicrographs were captured on Adobe Photoshop 7.0 and transferred to Scion Image software for quantitative analysis. Specimens were analyzed by two independent operators blinded to the treatment groups. Microsoft Excel software was used to calculate the RNI values from I/M ratios in the absence and presence of pharmacological inhibitors, as detailed in the text.
Surgical Procedures: The mouse femoral artery wire injury model of was used with minor modifications (Roque M, et al., Arterioscler Thromb Vasc Biol, 2000, 20(2):335-42). Briefly, forty-two male mice were studied. Endoluminal injury to the common femoral artery was produced by either 3 passages of a 0.014″ diameter angioplasty guidewire (Guidant, Santa Clara, Calif.). […] While being viewed under a surgical microscope, a groin incision was made and the femoral artery was isolated and temporarily clamped distal to the inguinal ligament. An arteriotomy was performed and the guidewire was passed 3 times to the level of the aortic bifurcation. The artery was then ligated proximal to the arteriotomy. A sham protocol was carried out on the contralateral side where the arteries underwent dissection, temporary clamping, and ligature, without passage of the wire. The formation of the neointima was confirmed in this model as being comprised mainly of VSMCs through immunohistochemical staining of representative sections for α-smooth muscle actin via a commercial kit (Sigma).
For all treatment protocols, rapamycin was administered by intraperitoneal injection once per day, for 14 days, as a suspension in 0.2% sodium carboxymethyl cellulose and 0.25% polysorbate-80. […]

[1] = wire injury, leptin 0.4 mg/kg daily i.p. 14 days, mean ± SD

Leptin: recombinant leptin; hormone derived from adipose tissue, encoded by the Ob gene
intimal area and intimal:media ratio (Example 2, leptin 0.4 mg/kg/d i.p. 14 days vs vehicle): significantly increased
I/M (intima:media ratio) [1]: 1.883 ± 0.140
Intima [1]: 0.028 ± 0.004
Lumen [1]: 0.010 ± 0.004
Media [1]: 0.015 ± 0.001
TVA (total vessel area) [1]: 0.053 ± 0.007
